Measured values taken from patent publication US8981053B2, “Molecules specifically binding pancreatic beta cells biomarkers” (Universite de Mons, priority 2011, dated 2015).
Where no end group is shown, it is not given here.

Assays:
[1] = target: T1, FXYD2-gamma-a regulatory subunit expressed by CAPAN-2 cells (Homo sapiens, UniProt P54710); assay: Immunocytochemistry on CAPAN2 and PANC1 cells; format: cell-based; conditions: CAPAN2 cells versus PANC1 cells
T1 construct: the FXYD2-gamma-a regulatory subunit expressed by CAPAN-2 cells; endogenous in cells; host or cells: CAPAN-2 cells (PANC1 cells as comparison)
T1 sequence (P54710 whole entry): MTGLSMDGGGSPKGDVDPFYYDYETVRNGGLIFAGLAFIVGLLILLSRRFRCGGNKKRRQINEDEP
Description: (§1) The specificity of P88, P89, P90 and a polyclonal antibody against the N-terminal sequence of FXYD2-gamma-a protein to the FXYD2-gamma-a regulatory subunit expressed by CAPAN-2 cells was checked by immunocytochemistry and immunofluorescence tests.
Immunocytochemistry tests were performed using the biotinylated peptides. An anti-biotine antibody was used and was recognized by a secondary antibody coupled to the peroxidase. The polyclonal antibody against the N-terminal sequence of FXYD2-gamma-a protein to the FXYD2-gamma-a was detected using a secondary biotinylated antibody that fixes a complex containing streptavidin, biotin and peroxidase. The latter gives a brown color in the presence of 3,3′-diaminobenzidine (DAB).

FXYD2-gamma-a subunit = FXYD2-gamma-a subunit (Homo sapiens, UniProt P54710); assay: Dissociation constant (Kd) determination of phage display clone and synthetized peptides; conditions: binding to FXYD2-gamma-a subunit
FXYD2-gamma-a subunit, sequence (P54710 whole entry, the tested form may be a part): as the sequence (P54710 whole entry) above
Description: Commercially available peptide libraries were screened and peptides binding the FXYD2-gamma-a subunit were retained for further analysis. The FXYD2-gamma-a is a regulating subunit of the Na—K-ATPase that contains 66 amino acids, from which 11 are specific to human beta-cells (Flamez D et al. DOI 10.1007/s00125-010-1714-z). Commercially available linear heptapeptide libraries were screened via M 13 phage display methodology. After 4 screening rounds, 42 clones were selected for further characterization: sequencing and dissociation constant (Kd) determination. […] The latter were synthetized either separately (called P89 and P90) or fused via a short sequence of the pill protein (called P88). All three synthetized peptides were further tested. […]

[2] = test system: human pancreatic Langerhans islets; assay: Immunohistochemistry on human pancreatic histological sections; format: cell-based
Description: (§2) A co-localization of peptide P88, insulin and glucagon was performed on human pancreatic histological sections using immunohistochemistry and immunofluorescence tests. Insulin is a hormone produced by the beta cells of Langerhans islets while glucagon is produced by the alpha cells of the same islets.
The marking is the same as the one obtained when the antibody anti-insulin was used (FIG. 4).
In other immunohistochemistry tests, the anti-FXYD2-gamma-a polyclonal antibody was used. […] Therefore, P88 is highly specific to the pancreatic beta cells FXYD2-gamma-a biomarker.

[3] = target: T1, FXYD2-gamma-a regulatory subunit expressed by CAPAN-2 cells; assay: Immunofluorescence on CAPAN2 and PANC1 cells with ImageJ semi-quantitative analysis (RRFL); format: cell-based
Description: as §1
Each secondary antibody described above was coupled to a fluorophore such as fluorescein which gives a green color at a certain wavelength. DAPI (4′,6-diamidino-2-phenylindole) was also used in order to stain the cell nuclei in blue. This allowed us to compare the localization of the blue and the green coloration. […] Therefore, P88 interacts specifically with CAPAN2 cells and is thus specific to the FXYD2-gamma-a biomarker.
The images obtained by immunofluorescence test were analyzed using ImageJ software in order to semi-quantitatively evaluate the fluorescent labeling. The following equation was used to calculate the relative rate of fluorescent labeling (RRFL): RRFL=(SIsample/Ncells)/(SIblanc/Ncells) Wherein SI is the signal intensity, N is the number of cells and blanc is the negative control sample.
The percentage of RRFL obtained when P88 was used at two different concentrations (5 μM and 10 μM) was determined compared to the RRFL obtained when the polyclonal antibody against the N-terminal sequence of FXYD2-gamma-a was used (FIG. 3 B). The ratio between the RRFL measured in CAPAN2 cells and the RRFL measured in PANC1 cells was also determined (FIG. 3 C). […] The ratio CAPAN2/PANC1 confirmed the labeling specificity of P88 compared to the used polyclonal antibody.

[4] = test system: human pancreatic beta cells; assay: Immunofluorescence co-localization on human pancreatic histological sections; format: cell-based
Description: as §2
Immunofluorescence tests were performed on human pancreatic histological sections such as P88 was detected together with insulin or glucagon. In another test, insulin was detected together with the polyclonal antibody against the N-terminal sequence of FXYD2-gamma-a. Insulin (specific of beta cells) was detected with a primary anti-insulin antibody which was detected using a secondary antibody coupled to Texas Red. Glucagon was detected with a primary anti-glucagon antibody which was also detected using a secondary antibody coupled to Texas Red. The latter gives red color to the antigenic sites. Biotinylated P88 was detected using a primary antibody anti-biotin and a secondary antibody coupled to fluorescein. The polyclonal antibody against the N-terminal sequence of FXYD2-gamma-a was also detected using a secondary antibody coupled to fluorescein. Antigenic sites marked by fluorescein are visualized in green color. DAPI was also used in order to stain the cells nuclei in blue. Pictures obtained with each staining (red, green and blue) were superimposed.

human Langerhans islets = assay: MRI of human Langerhans islets labeled with contrast agents; format: cell-based; conditions: for transverse relaxation rates of labeled human Langerhans islets compared to USPIO-PEG: independent from concentration and purity of islets
Description: Contrast agents USPIO and carboxy silane coated iron oxide nanoparticles coupled to the peptide P88 were tested for their interaction with the human Langerhans islets and compared to the use of USPIO-PEG contrast agent.

CAPAN2 cells [5] = assay: MRI of CAPAN2 cells labeled with contrast agents; format: cell-based, human; conditions: for MRI labeling of CAPAN2 cells: 2×10^6 to 0.1×10^6 cells per 100 μl; for transverse relaxation rates of labeled CAPAN2 cells compared to USPIO-PEG: independent from the concentration of CAPAN2 cells
Description: (§3) CAPAN2 cells were labeled with USPIO nanoparticles coupled to P88 or with carboxy silane coated iron oxide nanoparticles coupled to P88. USPIO-polyethylene glycol (PEG) were used as negative contrast agent. Labeled cells were visualized by MRI and the concentration of contrast agents bound to the cells was determined by iron dosage.
CAPAN2 cells were used with different concentrations ranging from 2×10^6 cell per 100 μl to 0.1×10^6 cells per 100 μl corresponding respectively to the beta cell concentration in healthy pancreas and in a pancreas with diabetes. […] The labeling was also clearly observed with the lowest CAPAN2 cell concentration.

[6] = test system: beta cells of Langerhans islets; assay: Co-localization of contrast agent labeled Langerhans islets with insulin (anti-PEG antibody); format: cell-based, human; conditions: fluorescein, insulin Texas red
Description: Co-localization tests were performed where antibodies anti-PEG were added to the Langrehans islets labeled with USPIO-P88 nanoparticles, the Langrehans islets labeled with carboxy silane coated iron oxide nanoparticles coupled to the peptide P88 and to the Langrehans islets labeled with USPIO-PEG. A secondary antibody that recognizes the anti-PEG antibody and coupled to the fluorescein was also used which created a green fluorescence.
Insulin was labeled with primary anti-insulin antibody and a secondary antibody coupled to Texas red which created a red fluorescence.

CAPAN2 cells [7] = assay: Iron dosage of CAPAN2 cells labeled with contrast agents; format: cell-based, human; conditions: contrast agent 1 mM, 2 mM and 3 mM
Description: as §3
This confirms the specificity of P88 to the pancreatic beta cells biomarker FXYD2-gamma-a and the efficacy of using the P88 coupled to a contrast agent in MRI.

[8] = target: FXYD2-gamma-a subunit (target of the phage display screening and Kd determination) (human) (UniProt P54710); assay: synthetic peptide; method not stated
FXYD2-gamma-a subunit (target of the phage display screening and Kd determination) (human), sequence (P54710 whole entry): as above

[9] = target: FXYD2-gamma-a regulatory subunit expressed by CAPAN-2 cells and human pancreatic beta cells (human) (UniProt P54710); assay: immunofluorescence on CAPAN2 cells, ImageJ semi-quantitative analysis, P88 at 10 µM
FXYD2-gamma-a regulatory subunit expressed by CAPAN-2 cells and human pancreatic beta cells (human), sequence (P54710 whole entry): as above

[10] = target: FXYD2-gamma-a regulatory subunit expressed by CAPAN-2 cells and human pancreatic beta cells (human) (UniProt P54710); assay: immunofluorescence on CAPAN2 cells, ImageJ semi-quantitative analysis, P88 at 5 µM
[11] = target: FXYD2-gamma-a subunit (target of the phage display screening and Kd determination) (human) (UniProt P54710); assay: phage clone characterisation after M13 phage display screening; method not stated

LPLSRHY [P89, LPLSRHY]
specificity of interaction (brown DAB coloration) [1]: less specific compared to P88

LPLSRHYGGGSVPFYSHSNTHHTSM [P88]
Kd (FXYD2-gamma-a subunit): 1890 nM
specificity of interaction (brown DAB coloration) [1]: more localized in the CAPAN2 cells
marking of pancreatic Langerhans islets [2]: high specific marking
RRFL higher than the RRFL produced by the anti-FXYD2-gamma-a polyclonal antibody ([3]; CAPAN2 cells, 5 μM): 791%
RRFL higher than the RRFL produced by the anti-FXYD2-gamma-a polyclonal antibody ([3]; CAPAN2 cells, 10 μM): 945%
green fluorescence pattern in CAPAN 2 cells ([3]; CAPAN2 cells, DAPI nuclear stain): correspondent to the blue fluorescent pattern of DAPI
green fluorescence in PANC1 cells ([3]; PANC1 cells): few green fluorescent spots
co-localization with glucagon (anti-glucagon antibody) [4]: did not co-localize
co-localization with insulin (anti-insulin antibody) [4]: perfect co-localization

NTHHTSM [P90]
dissociation constant (Kd) (FXYD2-gamma-a subunit): could not be determined
specificity of interaction (brown DAB coloration) [1]: less specific compared to P88

USPIO-P88: USPIO nanoparticles coupled to P88, MRI contrast agent (LPLSRHYGGGSVPFYSHSNTHHTSM; also: coupled to USPIO nanoparticles, site not given here)
MRI labeling of human Langerhans islets compared to USPIO-PEG (human Langerhans islets; also at low concentration and in non-pure islet samples): clear difference
transverse relaxation rates of labeled human Langerhans islets compared to USPIO-PEG (human Langerhans islets): higher
MRI labeling of CAPAN2 cells (CAPAN2 cells [5]): clear labeling
transverse relaxation rates of labeled CAPAN2 cells compared to USPIO-PEG (CAPAN2 cells [5]): higher
co-localization of labeled Langerhans islets with the red fluorescence of insulin [6]: perfectly co-localized
amount of iron captured by the CAPAN2 cells compared to USPIO-PEG (CAPAN2 cells [7]): always higher

silane coated iron oxide nanoparticles-P88: carboxy silane coated iron oxide nanoparticles coupled to P88 (LPLSRHYGGGSVPFYSHSNTHHTSM; also: coupled to carboxy silane coated iron oxide nanoparticles, site not given here)
transverse relaxation rates of labeled human Langerhans islets compared to USPIO-PEG (human Langerhans islets): higher
MRI labeling of CAPAN2 cells (CAPAN2 cells [5]): clear labeling
transverse relaxation rates of labeled CAPAN2 cells compared to USPIO-PEG (CAPAN2 cells [5]): higher
co-localization of labeled Langerhans islets with the red fluorescence of insulin [6]: perfectly co-localized
amount of iron captured by the CAPAN2 cells compared to USPIO-PEG (CAPAN2 cells [7]): always higher

LPLSRHY (also: biotinylated in ICC tests, site not given here) [P89]
Kd [8]: 109000 nM

LPLSRHYGGGSVPFYSHSNTHHTSM (also: biotinylated in ICC/IHC/IF tests, site not given here) [P88]
relative rate of fluorescent labeling (RRFL) in CAPAN2 cells against the anti-FXYD2-gamma-a polyclonal antibody [9]: 945 % higher
relative rate of fluorescent labeling (RRFL) in CAPAN2 cells against the anti-FXYD2-gamma-a polyclonal antibody [10]: 791 % higher

B1: selected M13 phage clone carrying 2 peptides (peptide)
peptide 1: LPLSRHY
peptide 2: NTHHTSM
Kd [11]: 9.3 nM
